Reference: PubChem BioAssay (NCI)
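Results reflect a 48-hour exposure of cells in 96-well plates to compound at five concentrations. TGI marks complete inhibition of growth.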

Tests used:
Test in all cases: NCI tumour cell line growth inhibition, 48 h
SNB-75 CNS = tested on: SNB-75 CNS
KM20L2 colon = tested on: KM20L2 colon
MOLT-4 leukemia = tested on: MOLT-4 leukemia
EKVX NSCLC = tested on: EKVX NSCLC
786-0 renal = tested on: 786-0 renal
NCI-H23 lung = tested on: NCI-H23 lung
NCI-H226 lung = tested on: NCI-H226 lung
XF 498 CNS = tested on: XF 498 CNS
HOP-18 NSCLC = tested on: HOP-18 NSCLC
UO-31 renal = tested on: UO-31 renal
SF-268 CNS = tested on: SF-268 CNS
HCT-116 colon = tested on: HCT-116 colon
SK-MEL-28 melanoma = tested on: SK-MEL-28 melanoma
SR leukemia = tested on: SR leukemia
DLD-1 colon = tested on: DLD-1 colon
UACC-62 melanoma = tested on: UACC-62 melanoma
SK-MEL-2 melanoma = tested on: SK-MEL-2 melanoma
SF-295 CNS = tested on: SF-295 CNS
SNB-78 CNS = tested on: SNB-78 CNS
LOX IMVI melanoma = tested on: LOX IMVI melanoma
HCT-15 colon = tested on: HCT-15 colon
OVCAR-4 ovarian = tested on: OVCAR-4 ovarian
SW-620 colon = tested on: SW-620 colon
M19-MEL melanoma = tested on: M19-MEL melanoma
CAKI-1 renal = tested on: CAKI-1 renal
A549 NSCLC = tested on: A549 NSCLC
IGROV1 ovarian = tested on: IGROV1 ovarian
OVCAR-8 ovarian = tested on: OVCAR-8 ovarian
KM12 colon = tested on: KM12 colon
OVCAR-5 ovarian = tested on: OVCAR-5 ovarian
ACHN renal = tested on: ACHN renal
DMS 273 small cell lung = tested on: DMS 273 small cell lung
U251 CNS = tested on: U251 CNS
UACC-257 melanoma = tested on: UACC-257 melanoma
SNB-19 CNS = tested on: SNB-19 CNS
LXFL 529 NSCLC = tested on: LXFL 529 NSCLC
OVCAR-3 ovarian = tested on: OVCAR-3 ovarian
TK-10 renal = tested on: TK-10 renal
RXF 393 renal = tested on: RXF 393 renal
HCC-2998 colon = tested on: HCC-2998 colon
SK-MEL-5 melanoma = tested on: SK-MEL-5 melanoma
COLO 205 colon = tested on: COLO 205 colon
NCI-H522 lung = tested on: NCI-H522 lung
M14 melanoma = tested on: M14 melanoma
K-562 leukemia = tested on: K-562 leukemia
SF-539 CNS = tested on: SF-539 CNS
SN12C renal = tested on: SN12C renal
HOP-62 NSCLC = tested on: HOP-62 NSCLC
RPMI-8226 leukemia = tested on: RPMI-8226 leukemia
A498 renal = tested on: A498 renal
HL-60(TB) leukemia = tested on: HL-60(TB) leukemia
MDA-MB-231 breast = tested on: MDA-MB-231 breast
MALME-3M melanoma = tested on: MALME-3M melanoma
NCI-H460 lung = tested on: NCI-H460 lung
SN12K1 renal = tested on: SN12K1 renal
T-47D breast = tested on: T-47D breast
HS 578T breast = tested on: HS 578T breast
MDA-MB-435 = tested on: MDA-MB-435
BT-549 breast = tested on: BT-549 breast
DU-145 prostate = tested on: DU-145 prostate
MCF7 breast = tested on: MCF7 breast
CCRF-CEM leukemia = tested on: CCRF-CEM leukemia
SK-OV-3 ovarian = tested on: SK-OV-3 ovarian
PC-3 prostate = tested on: PC-3 prostate
DMS 114 small cell lung = tested on: DMS 114 small cell lung
NCI/ADR-RES ovarian = tested on: NCI/ADR-RES ovarian
MDA-N = tested on: MDA-N
P388 leukemia = tested on: P388 leukemia
HT29 colon = tested on: HT29 colon
P388/ADR leukemia = tested on: P388/ADR leukemia
HOP-92 NSCLC = tested on: HOP-92 NSCLC

## CCOC(=O)c1nc2ccc(Cl)cc2c2c1Cc1ccccc1-2
SNB-75 CNS
  TGI: > 100 µM
KM20L2 colon
  TGI: > 100 µM
MOLT-4 leukemia
  TGI: > 100 µM
EKVX NSCLC
  TGI: > 100 µM
786-0 renal
  TGI: > 100 µM
NCI-H23 lung
  TGI: > 100 µM
NCI-H226 lung
  TGI: > 100 µM
XF 498 CNS
  TGI: > 100 µM
HOP-18 NSCLC
  TGI: > 100 µM
UO-31 renal
  TGI: > 100 µM
SF-268 CNS
  TGI: > 100 µM
HCT-116 colon
  TGI: > 100 µM
SK-MEL-28 melanoma
  TGI: > 100 µM
SR leukemia
  TGI: > 100 µM
DLD-1 colon
  TGI: > 100 µM
UACC-62 melanoma
  TGI: > 100 µM
SK-MEL-2 melanoma
  TGI: > 100 µM
SF-295 CNS
  TGI: > 100 µM
SNB-78 CNS
  TGI: > 100 µM
LOX IMVI melanoma
  TGI: > 100 µM
HCT-15 colon
  TGI: > 100 µM
OVCAR-4 ovarian
  TGI: > 100 µM
SW-620 colon
  TGI: > 100 µM
M19-MEL melanoma
  TGI: > 100 µM
CAKI-1 renal
  TGI: > 100 µM
A549 NSCLC
  TGI: > 100 µM
IGROV1 ovarian
  TGI: > 100 µM
OVCAR-8 ovarian
  TGI: > 100 µM
KM12 colon
  TGI: > 100 µM
OVCAR-5 ovarian
  TGI: > 100 µM
ACHN renal
  TGI: > 100 µM
DMS 273 small cell lung
  TGI: > 100 µM
U251 CNS
  TGI: > 100 µM
UACC-257 melanoma
  TGI: > 100 µM
SNB-19 CNS
  TGI: > 100 µM
LXFL 529 NSCLC
  TGI: > 100 µM
OVCAR-3 ovarian
  TGI: > 100 µM
TK-10 renal
  TGI: > 100 µM
RXF 393 renal
  TGI: > 100 µM
HCC-2998 colon
  TGI: > 100 µM
SK-MEL-5 melanoma
  TGI: > 100 µM
COLO 205 colon
  TGI: > 100 µM
NCI-H522 lung
  TGI: > 100 µM
M14 melanoma
  TGI: > 100 µM
K-562 leukemia
  TGI: > 100 µM
SF-539 CNS
  TGI: > 100 µM
SN12C renal
  TGI: > 100 µM
HOP-62 NSCLC
  TGI: > 100 µM
RPMI-8226 leukemia
  TGI: > 100 µM

## O=C(NCCCCCCNC(=O)n1cc(F)c(=O)[nH]c1=O)NCCCOCCOCCOCCOCCOCCOCCOCCOCCOCCOCCOCCOCCOCCOCCOCCOCCOCCOCCOCCOCCOCCCNC(=O)C(O)C(O)C(O)C(O)CO (centres undefined)
SNB-75 CNS
  TGI: > 100 µM
KM20L2 colon
  TGI: > 100 µM
MOLT-4 leukemia
  TGI: > 100 µM
A498 renal
  TGI: > 42.1 µM
EKVX NSCLC
  TGI: > 100 µM
786-0 renal
  TGI: > 100 µM
HL-60(TB) leukemia
  TGI: > 100 µM
NCI-H23 lung
  TGI: > 100 µM
NCI-H226 lung
  TGI: > 100 µM
XF 498 CNS
  TGI: > 100 µM
HOP-18 NSCLC
  TGI: > 100 µM
UO-31 renal
  TGI: > 100 µM
SF-268 CNS
  TGI: > 100 µM
HCT-116 colon
  TGI: > 100 µM
MDA-MB-231 breast
  TGI: > 100 µM
SK-MEL-28 melanoma
  TGI: > 100 µM
SR leukemia
  TGI: > 100 µM
DLD-1 colon
  TGI: > 100 µM
UACC-62 melanoma
  TGI: > 100 µM
MALME-3M melanoma
  TGI: > 100 µM
SK-MEL-2 melanoma
  TGI: > 100 µM
SF-295 CNS
  TGI: > 100 µM
SNB-78 CNS
  TGI: > 100 µM
LOX IMVI melanoma
  TGI: > 100 µM
HCT-15 colon
  TGI: > 100 µM
NCI-H460 lung
  TGI: > 100 µM
SN12K1 renal
  TGI: > 100 µM
T-47D breast
  TGI: > 100 µM
HS 578T breast
  TGI: > 100 µM
OVCAR-4 ovarian
  TGI: > 100 µM
MDA-MB-435
  TGI: > 100 µM
BT-549 breast
  TGI: > 100 µM
SW-620 colon
  TGI: > 100 µM
M19-MEL melanoma
  TGI: > 100 µM
DU-145 prostate
  TGI: > 100 µM
CAKI-1 renal
  TGI: > 100 µM
MCF7 breast
  TGI: > 62 µM
A549 NSCLC
  TGI: > 100 µM
IGROV1 ovarian
  TGI: > 100 µM
CCRF-CEM leukemia
  TGI: > 100 µM
SK-OV-3 ovarian
  TGI: > 100 µM
OVCAR-8 ovarian
  TGI: > 100 µM
KM12 colon
  TGI: > 100 µM
OVCAR-5 ovarian
  TGI: > 100 µM
PC-3 prostate
  TGI: > 100 µM
ACHN renal
  TGI: > 100 µM
DMS 273 small cell lung
  TGI: > 100 µM
U251 CNS
  TGI: > 100 µM
UACC-257 melanoma
  TGI: > 100 µM
SNB-19 CNS
  TGI: > 100 µM
DMS 114 small cell lung
  TGI: > 100 µM
NCI/ADR-RES ovarian
  TGI: > 100 µM
OVCAR-3 ovarian
  TGI: > 100 µM
TK-10 renal
  TGI: > 100 µM
RXF 393 renal
  TGI: > 100 µM
MDA-N
  TGI: > 100 µM
P388 leukemia
  TGI: > 100 µM
HCC-2998 colon
  TGI: > 100 µM
SK-MEL-5 melanoma
  TGI: > 100 µM
HT29 colon
  TGI: > 100 µM
COLO 205 colon
  TGI: > 100 µM
NCI-H522 lung
  TGI: > 100 µM
P388/ADR leukemia
  TGI: > 100 µM
M14 melanoma
  TGI: > 100 µM
K-562 leukemia
  TGI: > 100 µM
SF-539 CNS
  TGI: 43.7 µM
SN12C renal
  TGI: > 100 µM
HOP-92 NSCLC
  TGI: > 100 µM
HOP-62 NSCLC
  TGI: > 100 µM
RPMI-8226 leukemia
  TGI: > 100 µM
